Data taken from patent publication US6472391B2, “Nitrogen-containing heterocyclic compounds” (Millennium Pharmaceuticals, Inc., priority 1996, dated 2002).

SMILES	melting point
Fc1cc2ncnc(N3CCN(C(=S)NCc4cccnc4)CC3)c2cc1F [Compound 331, 4-(6,7-Difluoro-4-quinazolinyl)-N-(3-picolyl)-1-piperazinethiocarboxamide]	177 to 178 °C
CCOc1cc2ncnc(N3CCN(C(=O)Nc4ccc(Oc5ccccc5)cc4)CC3)c2cc1F [Compound 332, 4-(7-Ethoxy-6-fluoro-4-quinazolinyl)-N-(4-phenoxyphenyl)-1-piperazinecarboxamide]	197 to 198 °C
COc1cc2c(N3CCN(C(=O)Nc4ccc(Oc5ccccc5)cc4)CC3)ncnc2cc1C [Compound 333, 4-(6-Methoxy-7-methyl-4-quinazolinyl)-N-(4-phenoxyphenyl)-1-piperazinecarboxamide]	188 to 189 °C
COc1cc2c(N3CCN(C(=O)Nc4ccc(C#N)cc4)CC3)ncnc2cc1C [Compound 334, N-(4-Cyanophenyl)-4-(6-methoxy-7-methyl-4-quinazolinyl)-1-piperazinecarboxamide]	242 to 243 °C
CCOc1cc2ncnc(N3CCN(C(=O)Nc4ccc(Oc5ccccc5)cc4)CC3)c2cc1OC [Compound 335, 4-(7-Ethoxy-6-methoxy-4-quinazolinyl)-N-(4-phenoxyphenyl)-1-piperazinecarboxamide]	174 to 175 °C
CCOc1cc2ncnc(N3CCN(C(=O)Nc4ccc(Br)cc4)CC3)c2cc1OC [Compound 336, N-(4-Bromophenyl)-4-(7-ethoxy-6-methoxy-4-quinazolinyl)-1-piperazinecarboxamide]	210 to 212 °C
CCOc1cc2ncnc(N3CCN(C(=S)NCc4ccccc4)CC3)c2cc1OC [Compound 337, N-Benzyl-4-(7-ethoxy-6-methoxy-4-quinazolinyl)-1-piperazinethiocarboxamide]	168 to 169 °C
CCOc1cc2ncnc(N3CCN(C(=S)NCc4cccnc4)CC3)c2cc1OC [Compound 338, 4-(7-Ethoxy-6-methoxy-4-quinazolinyl)-N-(3-picolyl)-1-piperazinethiocarboxamide]	169 to 170 °C
COc1cc2c(N3CCN(C(=O)Nc4ccc(Oc5ccccc5)cc4)CC3)ncnc2cc1OC(C)C [Compound 339, 4-(7-Isopropoxy-6-methoxy-4-quinazolinyl)-N-(4-phenoxyphenyl)-1-piperazinecarboxamide]	157 to 160 °C
COc1cc2c(N3CCN(C(=S)NCc4ccccc4)CC3)ncnc2cc1OC(C)C [Compound 341, N-Benzyl-4-(7-isopropoxy-6-methoxy-4-quinazolinyl)-1-piperazinethiocarboxamide]	174 to 175 °C
COc1cc2c(N3CCN(C(=S)NCc4cccnc4)CC3)ncnc2cc1OC(C)C [Compound 342, 4-(7-Isopropoxy-6-methoxy-4-quinazolinyl)-N-(3-picolyl)-1-piperazinethiocarboxamide]	205 to 206 °C
CCOc1cc2c(N3CCN(C(=O)Nc4ccc(Oc5ccccc5)cc4)CC3)ncnc2cc1OC [Compound 346, 4-(6-Ethoxy-7-methoxy-4-quinazolinyl)-N-(4-phenoxyphenyl)-1-piperazinecarboxamide]	213 to 214 °C
CCOc1cc2c(N3CCN(C(=O)Nc4ccc(C#N)cc4)CC3)ncnc2cc1OC [Compound 347, N-(4-Cyanophenyl)-4-(6-ethoxy-7-methoxy-4-quinazolinyl)-1-piperazinecarboxamide]	178 to 179 °C
CCOc1cc2c(N3CCN(C(=S)NCc4ccccc4)CC3)ncnc2cc1OC [Compound 348, N-Benzyl-4-(6-ethoxy-7-methoxy-4-quinazolinyl)-1-piperazinethiocarboxamide]	170 to 171 °C
CCOc1cc2c(N3CCN(C(=S)NCc4cccnc4)CC3)ncnc2cc1OC [Compound 349, 4-(6-Ethoxy-7-methoxy-4-quinazolinyl)-N-(3-picolyl)-1-piperazinethiocarboxamide]	208 to 209 °C
COc1cc2ncnc(N3CCN(C(=O)Nc4ccc(Oc5ccccc5)cc4)CC3)c2cc1OS(C)(=O)=O [Compound 350, 4-(6-Mesyloxy-7-methoxy-4-quinazolinyl)-N-(4-phenoxyphenyl)-1-piperazinecarboxamide]	228 to 229 °C
COc1cc2ncnc(N3CCN(C(=S)NCc4ccccc4)CC3)c2cc1OS(C)(=O)=O [Compound 351, N-Benzyl-4-(6-mesyloxy-7-methoxy-4-quinazolinyl)-1-piperazinethiocarboxamide]	76 to 80 °C
CCOc1cc2ncnc(N3CCN(C(=O)Nc4ccc(C#N)cc4)CC3)c2cc1OCC [Compound 352, N-(4-Cyanophenyl)-4-(6,7-diethoxy-4-quinazolinyl)-1-piperazinecarboxamide]	186 to 187 °C
CCOc1cc2ncnc(N3CCN(C(=S)NCc4ccccc4)CC3)c2cc1OCC [Compound 353, N-Benzyl-4-(6,7-diethoxy-4-quinazolinyl)-1-piperazinethiocarboxamide]	134 to 136 °C
CCOc1cc2ncnc(N3CCN(C(=S)NCc4cccnc4)CC3)c2cc1OCC [Compound 354, 4-(6,7-Diethoxy-4-quinazolinyl)-N-(3-picolyl)-1-piperazinethiocarboxamide]	90 to 92 °C
O=C(Nc1ccc(Oc2ccccc2)cc1)N1CCN(c2ncnc3cc(OCc4ccccc4)c(OCc4ccccc4)cc23)CC1 [Compound 355, 4-(6,7-Dibenzyloxy-4-quinazolinyl)-N-(4-phenoxyphenyl)-1-piperazinecarboxamide]	137 to 138 °C
O=[N+]([O-])c1cc2c(N3CCN(C(=S)NCc4ccccc4)CC3)ncnc2cc1Cl [Compound 358, N-Benzyl-4-(7-chloro-6-nitro-4-quinazolinyl)-1-piperazinethiocarboxamide]	93 to 95 °C
O=C(Nc1ccc(Oc2ccccc2)cc1)N1CCN(c2ncnc3cc4ccccc4cc23)CC1 [Compound 363, 4-(4-Benzo[g]quinazolinyl)-N-(4-phenoxyphenyl)-1-piperazinecarboxamide]	105 to 108 °C
O=C(Nc1ccc([N+](=O)[O-])cc1)N1CCN(c2ncnc3cc4ccccc4cc23)CC1 [Compound 364, 4-(4-Benzo[g]quinazolinyl)-N-(4-nitrophenyl)-1-piperazinecarboxamide]	272 to 275 °C
S=C(NCc1ccccc1)N1CCN(c2ncnc3cc4ccccc4cc23)CC1 [Compound 365, 4-(4-Benzo[g]quinazolinyl)-N-benzyl-1-piperazinethiocarboxamide]	187 to 188 °C
O=C(Nc1ccc(Oc2ccccc2)cc1)N1CCN(c2ncnc3cc4c(cc23)OCO4)CC1 [Compound 367, 4-(6,7-Methylenedioxy-4-quinazolinyl)-N-(4-phenoxyphenyl)-1-piperazinecarboxamide]	206 to 207 °C
O=C(Nc1ccc([N+](=O)[O-])cc1)N1CCN(c2ncnc3cc4c(cc23)OCO4)CC1 [Compound 368, 4-(6,7-Methylenedioxy-4-quinazolinyl)-N-(4-nitrophenyl)-1-piperazinecarboxamide]	247 to 250 °C
N#Cc1ccc(NC(=O)N2CCN(c3ncnc4cc5c(cc34)OCO5)CC2)cc1 [Compound 369, N-(4-Cyanophenyl)-4-(6,7-methylenedioxy-4-quinazolinyl)-1-piperazinecarboxamide]	220 to 222 °C
